Key:
Test in all cases: Cell viability (MTS) assay, targeted toxin mediated cell killing
Type in all cases: cell-based, human
Settings in all cases: read-out: IC50, 1500 nM SO1861, toxin or toxin conjugate titrated + 1500 nM unconjugated SO1861
JIMT-1 cells = system: JIMT-1 cells
Description: (§1) Cells were seeded in a 96 well plate at 5.000-10.000 c/w in 100 μL/well and incubated overnight at 37° C. […] The media was removed from the cell culture plate and replaced by 180 μL culture media, followed by the addition of 20 μL treatment-mix/well. […] In the case that endosomal acidification inhibitors (chloroquine (Sigma Aldrich) or bafilomycin A1 (Enzo Life Sciences)) were used, the cell culture media in step 1 of treatment was replaced by 180 μL media containing 1 pM chloroquine or 0.2 pM bafilomycin A1. The plate was incubated for 1 hour at 37° C., before the 10× treatment-mix samples were added.
(§2) After treatment the cells were incubated for 72 hr at 37° C. before the cell viability was determined by a MTS-assay, performed according to the manufacturer's instruction (CellTiter 96® AQueous One Solution Cell Proliferation Assay, Promega). Briefly, the MTS solution was diluted 20× in DMEM without phenol red (PAN-Biotech GmbH) supplemented with 10% FBS (PAN-Biotech GmbH). […] Subsequently, the optical density at 492 nm was measured on a Thermo Scientific Multiskan FC plate reader (Thermo Scientific). For quantification the background signal of ‘medium only’ wells was subtracted from all other wells, before the ratio of untreated/treated cells was calculated, by dividing the background corrected signal of untreated wells over the background corrected signal of the treated wells.

HeLa cells = system: HeLa cells
Description: as §1, §2

CaSki cells = system: CaSki cells
Description: as §1, §2

How did the IC50 (JIMT-1 cells) turn out when Saporin was run?
The IC50 was 0.03 nM.

What about the IC50 (HeLa cells) of the same substance?
Its IC50 is 0.03 nM.

What about the IC50 (CaSki cells) of the same substance?
Its IC50 is 0.015 nM.

Source: patent publication US20230256111A1, “C[…] ADC OR AN AOC COMPRISING A VHH, AND A SAPONIN OR A LIGAND-SAPONIN CONJUGATE” (SAPREME TECHNOLOGIES B.V., priority 2020, published 2023)
